Experimental data from a melting point compilation (Tetko et al.; mined from patent text by program, amines drawn as free bases though some values may be those of a salt).

| SMILES | melting point |
| --- | --- |
| COC(=O)c1ccc(-c2nc(-c3ccc(Cl)cc3)no2)c([N+](=O)[O-])c1 | 189 to 190 °C |
| CN(CCCCCNC(=NCCSCc1csc(NC(=N)N)n1)NC#N)CCN(Cc1ccc(F)cc1)c1ccccn1 | 103 °C |
| CCOC(=O)c1nc2ccc([N+](=O)[O-])cc2c(=O)[nH]1 | 227 to 228 °C |
| Cc1[nH]c(C(=O)NCCCN(C)C)c(C)c1-c1nc2ccc(C(=O)c3ccccc3)cc2[nH]1 | 238 to 248 °C |
| O=C(CC(Cc1cccc2ccccc12)C(=O)O)NCCc1ccccc1 (stereo not given) | 131 to 135 °C |
| COc1cc2c(cc1OC)CN(CCc1ccc(N)cc1)CC2 | 120 °C |
| Cc1cc2c(OCc3ccc(C#N)cc3)cccc2o1 | 84 to 85 °C |
| CCNc1cc2ccc(OC)c(OC)c2c2cc(C)ccc12 | 100 to 102 °C |
| N#Cc1cc(C(=O)NNC(=O)c2occc2-c2ccc(OCc3ccccc3)cc2)ccc1O | 208 to 209 °C |
| COc1ccc(CSCC(C)C(=O)O)cc1 (stereo not given) | 74 to 82 °C |
| CC(C)(C)[Si](C)(C)OC1CN(S(C)(=O)=O)Cc2nc3c(N)nc4ccccc4c3n2C1 (stereo not given) | 256 to 258 °C |
| O=C(O)c1cccc2c1CC(N(CCCc1c[nH]c3c(F)cc(F)cc13)C1CCC1)CO2 (stereo not given) | 130 to 131 °C |
| NC(=O)CNc1ncccc1NC(=O)c1cccc(Cl)c1 | 210 to 211 °C |
| O=[N+]([O-])c1cccc(Oc2cncc(Cl)n2)c1 | 118 to 119 °C |
| Oc1ccc2nc(-c3ccc(C45CC6CC(CC(C6)C4)C5)c(O)c3)[nH]c2c1 | 250 to 252 °C |
| C=CCNC(=O)N1CC(Oc2cccc(Br)c2)C1 | 90 to 92 °C |
| CC(C)(C)c1cc(CC(Cc2cc(C(C)(C)C)c(O)c(C(C)(C)C)c2)[N+](=O)[O-])cc(C(C)(C)C)c1O | 161 to 165 °C |
| Cc1[nH]c(S(C)(=O)=O)nc1-c1cc(C(C)(C)C)c(O)c(C(C)(C)C)c1 | 235 to 237 °C |
| COC(=O)/C=C/c1cc(-c2ccc(S(C)(=O)=O)cc2)n(CC2CCCCC2)n1 | 48 to 50 °C |
| CC(=O)NC1Cc2ccc(C(=O)CCl)cc2C1 (stereo not given) | 173 to 174 °C |
| CSc1ccc2c3c(cccc13)C(=O)N2CCCC#N | 120 to 122 °C |
| CSc1cc(CO)cc(S(N)(=O)=O)c1Cc1ccccc1 | 190 to 192 °C |
| C=CCN1CCCN(c2cc(Cl)ccc2C)C1=S | 71 to 72 °C |
| Cc1c(Cc2cc(Cl)cc(Cl)c2)c(C(F)(F)F)nn1CCO | 91 to 93 °C |
| O=CNc1ccc(SC(CCc2ccc(Cl)cc2)Cn2ccnc2)cc1 (stereo not given) | 91 to 94 °C |

| SMILES | melting point |
| --- | --- |
| OCCCc1ccc2oc(Cc3ccc4ccccc4c3)nc2c1 | 102 to 103 °C |
| CS(=O)(=O)c1ccc(C(CC2CCCC2)C(=O)Nc2ncc[nH]2)cc1[N+](=O)[O-] (stereo not given) | 243 to 244 °C |
| O=C1N(Cc2ccncc2)Cc2cccnc2N1c1cccc([N+](=O)[O-])c1 | 169 to 170 °C |
| Nc1cc(C(=O)O)cc(OCc2ccc(Cl)cc2)c1C(=O)c1ccccc1 | 248 to 249 °C |
| CONC(=O)NC1(c2ccc(C(C)C)cc2OC)C(=O)c2ccccc2C1=O | 153 to 155 °C |
| Nc1ccc2c(c1)C=C(C(=O)O)C(C(F)(F)F)O2 (stereo not given) | 126 to 133 °C |
| O=C(CCc1cccc2[nH]ccc12)c1ccccc1OCC1CO1 (stereo not given) | 72 °C |
| Cc1c(O)cc2c(c1C)NCC2 | 164 to 167 °C |
| N#Cc1cnc(N)nc1-c1ccccc1 | 147 °C |
| Cc1ncccc1OCC1(c2onc(-c3ccc(O)cc3)c2-c2ccccc2)CC1 | 194 to 195 °C |
| CCC1(CCCCN2CCN(c3ccccn3)CC2)C(=O)Nc2ccc(F)cc21 (stereo not given) | 144 to 147 °C |
| CC(C)Oc1cc(O)c2c(=O)cc(Sc3ccc(O)cc3)oc2c1 | 205 to 207 °C |
| Cc1c(F)c(N2CCNC(C)C2)cc2c1C(=O)CCN2C1CC1 (stereo not given) | 98 to 100 °C |
| COCCN1CSC(=Cc2cc(C(C)(C)C)c(O)c(C(C)(C)C)c2)C1=O | 147 to 149 °C |
| CO[C@H]1CCN(C(=O)c2cc(-c3ccccc3)c(=O)n3c2-c2sccc2C3)C1 | 159 to 162 °C |
| COc1cc(C2C3=C(COC3=O)Nc3ccc4cc(C)[nH]c4c32)cc(OC)c1OC (stereo not given) | 280 to 281 °C |
| N#Cc1ccc(Cl)c(N=Cc2ccccc2O)c1 | 147 to 148 °C |
| CCCn1c(=O)[nH]c2cc(Cl)cc(Cl)c2c1=O | 223 to 234 °C |
| CC1(C)C(=O)c2c(cc(O)c(Cl)c2Cl)C1c1ccccc1 (stereo not given) | 259 to 262 °C |
| CCCCCCCCCCNC(=O)CC#N | 78.5 to 80 °C |
| O=S(=O)(C1=Cc2ccccc2C1)c1ccc(O)cc1 | 209 to 210 °C |
| CC(=O)C1CCC(CNC(=O)c2cccnc2Oc2ccc(F)cc2)CC1 (stereo not given) | 110 to 111 °C |
| Cn1c(=O)c(-c2c(Cl)cccc2Cl)cc2cnc(NCc3ccccn3)nc21 | 198 to 201 °C |
| O=C(c1ccc(OCc2ccccc2)cc1O)c1ccc(OCc2ccccc2)cc1O | 140 to 142 °C |
| CC1(C)CCc2c(N3CCOCC3)nc3sc4c(NCc5ccc(S(N)(=O)=O)cc5)ncnc4c3c2C1 | 258 to 260 °C |

| SMILES | melting point |
| --- | --- |
| CCCc1c(OCC(=O)OC)ccc2c1OC(CCCCCCO)CC2=O (stereo not given) | 93 to 94.5 °C |
| CCC(=O)NCc1c[nH]c2ccccc12 | 91 to 92 °C |
| O=C(CN1CCOCC1)N[C@@H](Cc1cccc2ccccc12)C(=O)O | 100 to 103 °C |
| Cc1cccc(-c2nc3ccc(O)cc3n2Cc2ccccc2Br)c1 | 218 °C |
| O=S(=O)(Nc1ccc(OCc2ccc3ccccc3n2)cc1)c1c(F)c(F)c(F)c(F)c1F | 170 to 178 °C |
| Cc1cnc2[nH]cc(/C=C3\N=C(NCC(C)C)NC3=O)c2c1 | 338 to 339 °C |
| Nc1nc(C(=O)N2CCN(Cc3ccc4c(c3)OCO4)CC2)c(-c2ccncc2)s1 | 216 to 217 °C |
| CC12CCC3c4cc([N+](=O)[O-])c(O)cc4CCC3C1CCC2=O (stereo not given) | 178 to 180 °C |
| Cc1ccc2c(c1)c(N1CCN(C(=O)c3ccco3)CC1)c(C#N)c(=O)n2C | 231 °C |
| CCC[C@H]1C(=O)N(S(=O)(=O)c2ccc3ccccc3c2)[C@H]2CCN(S(C)(=O)=O)[C@H]12 (relative stereo) | 257 to 260 °C |
| Cc1nc2c3c(ccc2n1C1CC1)C(=O)[C@H](O)[C@@H](c1ccccc1)O3 | 178 °C |
| CC1(C)Oc2ccc(S(=O)(=O)c3cccc(O)c3)cc2[C@@H](Nc2ccnc(Cl)n2)[C@]1(C)O | > 280 °C |
| COc1ccc(OCC(O)CCN2CCN(c3ccccc3)CC2)cc1 (stereo not given) | 103 to 105 °C |
| CCOC(=O)C(=O)Nc1cccnc1 | 98 to 100 °C |
| CCOC(=O)c1cn(-c2ccc(F)cc2F)c2nc(OC)c(F)cc2c1=O | 190 to 192 °C |
| COc1ccc(C=NO)cc1C | 70 to 72 °C |
| COc1c(C)cc2c(c1C)C[C@@H]1c3ccccc3N[C@H]21 (relative stereo) | 117 °C |
| CC(C)=NNC(=O)NCCCN(C)C | 49 to 53 °C |
| O=C(O)C(=O)c1ccsc1 | 63 °C |
| CCOC(=O)C(Cc1cccnc1)c1nnc2c(CC(C)C)nc(-c3ccccc3)cn12 (stereo not given) | 110 to 111 °C |
| O=C(O)CN(C(=O)CN1C(=O)c2ccccc2C1=O)c1ccccc1 | 224 °C |
| CCOC(=O)c1cnc2ccc(F)cc2c1Cl | 55 to 57 °C |
| CC12CCC3c4ccc(C(=O)O)cc4CCC3C1CCC2C(=O)CCc1ccc(F)cc1 (stereo not given) | 224 to 227 °C |
| CC(C)S(=O)(=O)c1ccccc1Nc1nc(Nc2ccc3c(c2)C(C)(C)CCC(=O)N3C)ncc1Cl | 195 to 197 °C |
| CC1(C)COc2ccc(C[C@@H](NC(=O)c3ccc(F)c4ccccc34)[C@@H](O)c3cccc(Cl)c3)cc21 (racemic) | 131 to 133 °C |

| SMILES | melting point |
| --- | --- |
| CC(C)(C)OC(=O)NCCCCC(=O)N1CCC(c2[nH]nc3c2C(=O)c2c(NC(=O)NN4CCOCC4)cccc2-3)CC1 | 98 to 99 °C |
| CNC(=O)N(O)C(C)c1ccc(OC)cc1 (stereo not given) | 102 to 104 °C |
| COC1CC(C)(C)C(O)C(OC(=O)c2ccccc2)C=C1C (stereo not given) | 98 to 99 °C |
| Cc1nn(-c2ccc(F)cc2)cc1C(=O)N(CC(=O)O)c1ccc(OCC(C)(C)C)c(C#N)c1 | 157 °C |
| CCCCCCCCCCCCCCCCCCNC(=O)NCCCCCCN | 123 to 168 °C |
| O=C1CC(OCc2ccccc2)C2COC1O2 (stereo not given) | 118 to 119 °C |
| CCCC=CCOc1ccc(C(C)(C)CC(C)(C)C)cc1-n1nc2ccccc2n1 | 80 to 81 °C |
| O=c1nc(-c2ccccn2)sc2ccc(OCc3ccccc3)cc12 | 198 to 199 °C |
| CCCCC1=C(/C=C/C(=O)Oc2ccc([N+](=O)[O-])cc2)CCc2cc(OC)ccc21 | 94 to 95 °C |
| CN(C)S(=O)(=O)n1cc(I)cn1 | 32 °C |
| CC[C@@H]1C(=O)N(c2ccc(C#N)c(Cl)c2)[C@@H](C)[C@H]1O | 109 to 110 °C |
| CS(=O)(=O)Nc1cc(OCCNC2CCCC2)ccc1C(=O)Nc1ccccc1 | 231 to 232 °C |
| CC1(C)OC(=O)N[C@@H]1c1ccccc1 | 149 °C |
| CN1CCN(c2ccccc2OCc2cc(CCC(=O)O)c3c(c2)CC(NS(=O)(=O)c2ccc(Cl)cc2)CC3)CC1 (stereo not given) | 122 °C |
| Cc1nn(-c2ccccn2)c(C)c1S(N)(=O)=O | 160 to 163 °C |
| Cc1cc(C#N)cc(C)c1Nc1nc(Nc2ccc(C#N)cc2)nc(Cl)c1Br | 259 to 260 °C |
| Cc1ccccc1C(=O)Nc1ccc(C(=O)N2CCCC(NC=O)c3ccccc32)cc1 (stereo not given) | 211 to 213 °C |
| CC(C)C(=O)N1CC(OCc2ccccc2)C(OCc2ccccc2)C(OCc2ccccc2)C1COCc1ccccc1 (stereo not given) | 185 to 189 °C |
| CC(=O)CC(=O)OC(c1ccccc1)c1ccccc1 | 44 to 54 °C |
| CCN1C(=O)C=C(c2ccc(Cl)c(Cl)c2)C1=O | 138 to 141 °C |
| CC(=O)c1cc(-c2ccc(C(F)(F)F)cc2)oc1C | 87 to 88 °C |
| CC(=O)c1cc(C)n(CCO)n1 | 78 to 79 °C |
| CNC(=O)CCc1cn(Cc2ccc(C(=O)O)cc2OC)c2cc(C(=O)NCC3CCCC3)ccc12 | 274 to 275 °C |
| COCC(=O)NCc1cccc2c1CN(C1CCC(=O)NC1=O)C2=O (stereo not given) | 232 to 234 °C |
| O=[PH](O)Cc1ccc(P(c2ccccc2)c2ccccc2)cc1 | 40 °C |
